Active and inactive are the calls of the source.
Key:
[1] = target: T1, DNA repair protein RAD52 homolog (Homo sapiens, UniProt P43351); assay type: functional, biochemical
T1 sequence (P43351 whole entry): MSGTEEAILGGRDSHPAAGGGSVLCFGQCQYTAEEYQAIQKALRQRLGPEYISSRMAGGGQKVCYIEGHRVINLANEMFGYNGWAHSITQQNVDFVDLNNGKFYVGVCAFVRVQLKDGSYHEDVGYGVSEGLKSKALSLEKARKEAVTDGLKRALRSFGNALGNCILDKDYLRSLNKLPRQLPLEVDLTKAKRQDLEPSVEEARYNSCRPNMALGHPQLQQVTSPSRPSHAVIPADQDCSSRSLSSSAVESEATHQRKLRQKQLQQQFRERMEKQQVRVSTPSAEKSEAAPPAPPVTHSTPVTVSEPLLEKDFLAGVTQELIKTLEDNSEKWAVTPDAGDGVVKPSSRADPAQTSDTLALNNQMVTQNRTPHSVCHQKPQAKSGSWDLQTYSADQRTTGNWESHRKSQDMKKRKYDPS

[2] = target: T2, DNA repair and recombination protein RAD54-like (Homo sapiens, UniProt Q92698); experiment: RAD54 Holliday junction migration blockers – biochemical, fluorescence, cherry-picked samples, dose series, confirmation (AID 651657); assay type: functional
T2 sequence (Q92698 whole entry): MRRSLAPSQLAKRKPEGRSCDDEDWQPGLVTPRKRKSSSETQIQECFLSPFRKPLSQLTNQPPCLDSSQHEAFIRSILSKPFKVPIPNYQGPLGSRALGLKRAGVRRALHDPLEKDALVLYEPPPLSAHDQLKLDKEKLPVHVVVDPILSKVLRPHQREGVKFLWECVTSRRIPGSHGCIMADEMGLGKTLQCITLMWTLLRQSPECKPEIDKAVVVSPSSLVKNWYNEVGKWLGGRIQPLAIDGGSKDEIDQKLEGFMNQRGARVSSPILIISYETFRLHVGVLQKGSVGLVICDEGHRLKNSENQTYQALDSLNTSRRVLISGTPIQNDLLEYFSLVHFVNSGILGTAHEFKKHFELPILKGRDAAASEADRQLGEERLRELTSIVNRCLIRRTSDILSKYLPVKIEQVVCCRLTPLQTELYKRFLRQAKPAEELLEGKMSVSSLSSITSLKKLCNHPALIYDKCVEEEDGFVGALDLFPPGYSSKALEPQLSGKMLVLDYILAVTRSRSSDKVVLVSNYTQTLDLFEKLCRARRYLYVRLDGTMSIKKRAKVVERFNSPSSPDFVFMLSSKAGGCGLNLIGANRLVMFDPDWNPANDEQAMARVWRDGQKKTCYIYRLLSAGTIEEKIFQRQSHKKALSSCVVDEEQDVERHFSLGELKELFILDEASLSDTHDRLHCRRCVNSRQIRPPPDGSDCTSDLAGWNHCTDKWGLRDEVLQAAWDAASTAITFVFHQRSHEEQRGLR

Nonstructural protein 1 = Nonstructural protein 1 (Influenza A virus, UniProt Q194T2); assay type: functional, Influenza A virus (A/California/07/2009(H1N1))
Sequence of Nonstructural protein 1 (Q194T2 whole entry): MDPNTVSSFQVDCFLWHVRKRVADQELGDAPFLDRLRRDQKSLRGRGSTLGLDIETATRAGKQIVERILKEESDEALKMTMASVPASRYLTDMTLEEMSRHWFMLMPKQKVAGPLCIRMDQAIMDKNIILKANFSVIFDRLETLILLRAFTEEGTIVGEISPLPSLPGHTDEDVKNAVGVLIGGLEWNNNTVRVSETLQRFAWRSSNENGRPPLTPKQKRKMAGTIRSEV

[3] = cytotoxicity toward MDA-MB-231 breast cancer cells – cell-based, CellTiter-Glo luminescence, cherry-pick, cytotoxicity control for RAD54 inhibitor project, dose response (AID 651692); assay type: functional
[4] = target: T3, Microphthalmia-associated transcription factor (Homo sapiens, UniProt O75030); experiment: reducers of TRPM1 reporter luminescence, concentration series – cell-based, SK-MEL-5, cherry-picked, set 3, MITF inhibitor project, dose response (AID 493073); assay type: functional;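 further: SK-MEL-5 melanoma cells with luciferase driven by the MITF target TRPM1 promoter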
T3 sequence (O75030 whole entry): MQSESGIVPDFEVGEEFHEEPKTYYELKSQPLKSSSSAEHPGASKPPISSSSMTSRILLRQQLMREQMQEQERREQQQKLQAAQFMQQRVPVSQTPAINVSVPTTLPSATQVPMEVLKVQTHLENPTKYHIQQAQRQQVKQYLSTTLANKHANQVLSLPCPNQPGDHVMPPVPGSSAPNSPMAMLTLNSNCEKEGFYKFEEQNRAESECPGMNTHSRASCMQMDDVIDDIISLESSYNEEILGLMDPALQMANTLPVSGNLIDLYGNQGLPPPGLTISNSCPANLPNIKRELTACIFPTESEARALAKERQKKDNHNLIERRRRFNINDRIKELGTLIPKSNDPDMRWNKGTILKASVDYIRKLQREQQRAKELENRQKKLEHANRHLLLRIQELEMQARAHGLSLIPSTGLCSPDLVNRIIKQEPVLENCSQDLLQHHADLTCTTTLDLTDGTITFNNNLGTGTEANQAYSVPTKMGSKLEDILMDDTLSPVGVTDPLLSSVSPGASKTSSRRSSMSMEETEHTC

[5] = Vero cell cytotoxicity, cytotoxicity control for M. tuberculosis inhibitor project, purified and synthesized samples, set 3 (AID 504684); assay type: functional
[6] = target: Low molecular weight phosphotyrosine protein phosphatase (Homo sapiens, UniProt P24666); assay type: functional; settings: read-out: IC50_Mean;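 further: Dose-response confirmation assay measuring inhibition of LMPTP enzyme activity by fluorescence intensity read-out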
Sequence of Low molecular weight phosphotyrosine protein phosphatase (P24666 whole entry): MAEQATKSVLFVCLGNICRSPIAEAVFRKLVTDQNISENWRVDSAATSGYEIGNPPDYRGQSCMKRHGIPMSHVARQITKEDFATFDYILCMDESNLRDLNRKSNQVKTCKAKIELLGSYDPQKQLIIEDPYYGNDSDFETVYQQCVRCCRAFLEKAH

Cytochrome P450 2C9 = Cytochrome P450 2C9 (Homo sapiens, UniProt P11712)
Insulin-degrading enzyme [7] = target: T4, Insulin-degrading enzyme (Homo sapiens, UniProt P14735); experiment: recombinant IDE activation, cell-free – biochemical, fluorescence polarization, counter-screen for IDE activator project, dose response (AID 588681)
T4 sequence (P14735 whole entry): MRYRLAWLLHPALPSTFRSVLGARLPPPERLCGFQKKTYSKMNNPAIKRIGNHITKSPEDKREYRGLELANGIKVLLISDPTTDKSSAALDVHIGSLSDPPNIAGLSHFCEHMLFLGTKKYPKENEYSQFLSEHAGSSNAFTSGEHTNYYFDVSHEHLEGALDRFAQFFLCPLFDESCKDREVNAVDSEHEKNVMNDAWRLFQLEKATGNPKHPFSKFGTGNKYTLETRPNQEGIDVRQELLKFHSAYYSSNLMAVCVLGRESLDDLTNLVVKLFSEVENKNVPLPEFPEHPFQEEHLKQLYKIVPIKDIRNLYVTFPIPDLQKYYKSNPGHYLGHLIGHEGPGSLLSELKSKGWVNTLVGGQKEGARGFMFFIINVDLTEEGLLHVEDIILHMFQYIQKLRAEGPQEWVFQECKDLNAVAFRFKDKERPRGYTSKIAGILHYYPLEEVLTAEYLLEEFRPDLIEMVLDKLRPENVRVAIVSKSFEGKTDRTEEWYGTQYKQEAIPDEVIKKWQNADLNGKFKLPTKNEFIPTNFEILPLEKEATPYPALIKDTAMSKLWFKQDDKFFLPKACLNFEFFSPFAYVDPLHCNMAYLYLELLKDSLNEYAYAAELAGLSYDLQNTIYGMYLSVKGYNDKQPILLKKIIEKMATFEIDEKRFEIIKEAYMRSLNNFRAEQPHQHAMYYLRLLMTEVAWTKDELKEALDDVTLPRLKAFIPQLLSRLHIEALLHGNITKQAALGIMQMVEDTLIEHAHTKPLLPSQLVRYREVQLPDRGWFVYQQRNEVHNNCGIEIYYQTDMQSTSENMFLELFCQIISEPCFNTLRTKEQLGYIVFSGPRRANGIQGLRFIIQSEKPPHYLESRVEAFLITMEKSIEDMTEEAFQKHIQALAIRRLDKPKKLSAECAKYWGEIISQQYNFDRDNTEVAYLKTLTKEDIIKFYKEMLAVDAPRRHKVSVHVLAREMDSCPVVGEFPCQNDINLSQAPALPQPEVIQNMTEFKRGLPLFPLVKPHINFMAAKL

Cytochrome P450 2D6 = Cytochrome P450 2D6 (Homo sapiens, UniProt P10635);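 further: CYP2D6 member of a cytochrome P450 panel assay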
Sequence of Cytochrome P450 2D6 (P10635 whole entry): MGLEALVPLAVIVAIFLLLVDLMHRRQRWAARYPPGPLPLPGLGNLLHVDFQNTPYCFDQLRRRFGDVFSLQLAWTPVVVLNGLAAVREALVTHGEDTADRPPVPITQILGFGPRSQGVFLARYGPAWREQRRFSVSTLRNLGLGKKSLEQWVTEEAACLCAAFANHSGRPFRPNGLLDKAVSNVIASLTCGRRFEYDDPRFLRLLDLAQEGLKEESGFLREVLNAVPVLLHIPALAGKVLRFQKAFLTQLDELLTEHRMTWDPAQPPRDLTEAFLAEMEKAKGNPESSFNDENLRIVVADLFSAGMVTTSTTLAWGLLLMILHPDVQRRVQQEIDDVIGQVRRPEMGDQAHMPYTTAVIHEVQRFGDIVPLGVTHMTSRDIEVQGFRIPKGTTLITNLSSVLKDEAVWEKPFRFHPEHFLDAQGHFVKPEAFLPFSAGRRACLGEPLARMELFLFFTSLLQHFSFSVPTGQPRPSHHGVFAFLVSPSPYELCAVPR

HEK293 [8] = experiment: optical interference in Abeta FP readout, dose response, artefact control for IDE activator project, biochemical, fluorescence polarization (AID 588442); assay type: functional, cell-based; settings: Homo sapiens
HEK293 [9] = experiment: membrane integrity loss in HEK cells – cell-based, fluorescence, cytotoxicity control for IDE activator project, dose response (AID 588440); assay type: functional; settings: Homo sapiens;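 further: cytotoxicity by LDH release measuring loss of membrane integrity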
Cytochrome P450 3A4 = Cytochrome P450 3A4 (Homo sapiens, UniProt P08684);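 further: CYP3A4 tested as one member of a cytochrome P450 panel screen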
Insulin-degrading enzyme [10] = target: T4, Insulin-degrading enzyme; experiment: cellular IDE activation of Abeta substrate cleavage – fluorescence polarization, HEK cells, dose response (AID 588439); assay type: functional, cell-based
[11] = target: T5, ATP-dependent translocase ABCB1 (Homo sapiens, UniProt P08183); experiment: inhibition of BCRP-mediated JC-1 efflux – Ig-MXP3 cells, flow cytometry, set 2, dose response (AID 504566); assay type: functional; settings: read-out: EC50_MICROM_;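 further: flow cytometry median green fluorescence of retained JC-1 dye; potency of efflux pump inhibition measured as rising substrate retention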
T5 sequence (P08183 whole entry): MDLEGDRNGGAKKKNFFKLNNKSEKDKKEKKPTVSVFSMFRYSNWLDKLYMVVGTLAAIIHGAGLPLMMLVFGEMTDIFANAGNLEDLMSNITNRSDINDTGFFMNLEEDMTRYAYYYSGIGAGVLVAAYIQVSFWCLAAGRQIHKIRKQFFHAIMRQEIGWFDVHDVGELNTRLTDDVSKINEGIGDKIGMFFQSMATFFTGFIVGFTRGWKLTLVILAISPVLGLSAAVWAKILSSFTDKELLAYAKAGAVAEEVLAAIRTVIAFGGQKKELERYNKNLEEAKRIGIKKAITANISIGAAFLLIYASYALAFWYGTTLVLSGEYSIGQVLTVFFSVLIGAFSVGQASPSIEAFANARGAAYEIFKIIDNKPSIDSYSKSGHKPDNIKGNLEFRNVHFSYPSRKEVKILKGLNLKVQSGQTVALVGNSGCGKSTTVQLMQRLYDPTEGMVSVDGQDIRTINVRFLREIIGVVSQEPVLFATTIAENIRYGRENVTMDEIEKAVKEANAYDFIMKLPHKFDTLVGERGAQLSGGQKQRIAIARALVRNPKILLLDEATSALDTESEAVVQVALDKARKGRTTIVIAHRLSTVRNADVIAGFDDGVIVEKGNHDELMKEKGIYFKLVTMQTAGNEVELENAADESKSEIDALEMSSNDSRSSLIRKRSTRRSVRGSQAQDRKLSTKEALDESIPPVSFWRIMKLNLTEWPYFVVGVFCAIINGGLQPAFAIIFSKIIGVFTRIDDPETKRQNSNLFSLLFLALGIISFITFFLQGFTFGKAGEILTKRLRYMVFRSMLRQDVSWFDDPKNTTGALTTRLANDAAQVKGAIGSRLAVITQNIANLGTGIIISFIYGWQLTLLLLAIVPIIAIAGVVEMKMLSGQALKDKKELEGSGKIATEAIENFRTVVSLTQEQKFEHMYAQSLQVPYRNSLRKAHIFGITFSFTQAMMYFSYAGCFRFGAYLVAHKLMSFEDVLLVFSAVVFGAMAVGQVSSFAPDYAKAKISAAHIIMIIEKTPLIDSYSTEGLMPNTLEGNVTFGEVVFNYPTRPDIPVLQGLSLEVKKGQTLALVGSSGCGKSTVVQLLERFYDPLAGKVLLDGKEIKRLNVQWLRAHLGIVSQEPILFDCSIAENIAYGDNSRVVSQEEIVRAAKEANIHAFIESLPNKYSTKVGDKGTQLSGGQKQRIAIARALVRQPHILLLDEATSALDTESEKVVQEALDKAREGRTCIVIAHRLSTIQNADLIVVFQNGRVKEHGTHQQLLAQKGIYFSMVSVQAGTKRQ

[12] = target: T5, ATP-dependent translocase ABCB1; experiment: P-gp JC-1 efflux blockade concentration-response – Jurkat-DNR cells, flow cytometry, set 2, dose response (AID 504569); assay type: functional; settings: read-out: EC50_MICROM_;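 further: potency of pump inhibitors that raise cellular JC-1 green fluorescence up to the nicardipine level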
[13] = target: Luciferin 4-monooxygenase (Photinus pyralis, UniProt P08659); experiment: inhibition of purified Photinus pyralis luciferase – biochemical, luminescence, dose response (AID 1891)
Sequence of Luciferin 4-monooxygenase (P08659 whole entry, the tested form may be a part): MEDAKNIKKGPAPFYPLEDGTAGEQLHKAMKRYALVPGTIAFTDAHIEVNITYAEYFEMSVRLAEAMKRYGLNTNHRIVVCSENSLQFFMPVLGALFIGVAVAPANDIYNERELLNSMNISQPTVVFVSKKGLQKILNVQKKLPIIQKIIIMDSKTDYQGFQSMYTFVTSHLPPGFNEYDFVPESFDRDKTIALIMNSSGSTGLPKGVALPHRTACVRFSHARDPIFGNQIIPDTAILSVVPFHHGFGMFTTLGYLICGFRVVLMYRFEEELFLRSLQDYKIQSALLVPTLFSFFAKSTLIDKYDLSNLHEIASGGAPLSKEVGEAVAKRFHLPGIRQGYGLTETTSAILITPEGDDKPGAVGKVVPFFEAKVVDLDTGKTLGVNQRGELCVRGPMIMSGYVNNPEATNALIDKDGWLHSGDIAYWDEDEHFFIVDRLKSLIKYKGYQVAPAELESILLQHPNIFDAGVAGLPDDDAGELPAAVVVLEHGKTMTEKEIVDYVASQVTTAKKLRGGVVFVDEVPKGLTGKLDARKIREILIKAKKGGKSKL

[14] = inhibition of ARNT PAS-B/TACC3 complex formation – biochemical, AlphaScreen, cherry-picked samples, confirmation (AID 651703); assay type: functional, Homo sapiens;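 further: His-tagged ARNT PAS-B domain paired with GST-TACC3 E629A dimer coactivator fragment; potency of inhibitors that break up the complex and lower AlphaScreen signal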
[15] = Luminescence Cell-Based Dose Confirmation HTS to Identify Inhibitors of Platelet Dense Granule Release. [Related pubchem assays: 1663 (Primary HTS), 1678 (Summary of Project)]; assay type: functional
[16] = target: Ras and Rab interactor 1/Tyrosine-protein kinase ABL1 (Homo sapiens, UniProt P00519+Q13671); assay type: functional;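 further: biochemical TR-FRET dose-response test measuring inhibition of binding between Rin1 and Abl proteins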
Sequence of Ras and Rab interactor 1/Tyrosine-protein kinase ABL1 (P00519 whole entry): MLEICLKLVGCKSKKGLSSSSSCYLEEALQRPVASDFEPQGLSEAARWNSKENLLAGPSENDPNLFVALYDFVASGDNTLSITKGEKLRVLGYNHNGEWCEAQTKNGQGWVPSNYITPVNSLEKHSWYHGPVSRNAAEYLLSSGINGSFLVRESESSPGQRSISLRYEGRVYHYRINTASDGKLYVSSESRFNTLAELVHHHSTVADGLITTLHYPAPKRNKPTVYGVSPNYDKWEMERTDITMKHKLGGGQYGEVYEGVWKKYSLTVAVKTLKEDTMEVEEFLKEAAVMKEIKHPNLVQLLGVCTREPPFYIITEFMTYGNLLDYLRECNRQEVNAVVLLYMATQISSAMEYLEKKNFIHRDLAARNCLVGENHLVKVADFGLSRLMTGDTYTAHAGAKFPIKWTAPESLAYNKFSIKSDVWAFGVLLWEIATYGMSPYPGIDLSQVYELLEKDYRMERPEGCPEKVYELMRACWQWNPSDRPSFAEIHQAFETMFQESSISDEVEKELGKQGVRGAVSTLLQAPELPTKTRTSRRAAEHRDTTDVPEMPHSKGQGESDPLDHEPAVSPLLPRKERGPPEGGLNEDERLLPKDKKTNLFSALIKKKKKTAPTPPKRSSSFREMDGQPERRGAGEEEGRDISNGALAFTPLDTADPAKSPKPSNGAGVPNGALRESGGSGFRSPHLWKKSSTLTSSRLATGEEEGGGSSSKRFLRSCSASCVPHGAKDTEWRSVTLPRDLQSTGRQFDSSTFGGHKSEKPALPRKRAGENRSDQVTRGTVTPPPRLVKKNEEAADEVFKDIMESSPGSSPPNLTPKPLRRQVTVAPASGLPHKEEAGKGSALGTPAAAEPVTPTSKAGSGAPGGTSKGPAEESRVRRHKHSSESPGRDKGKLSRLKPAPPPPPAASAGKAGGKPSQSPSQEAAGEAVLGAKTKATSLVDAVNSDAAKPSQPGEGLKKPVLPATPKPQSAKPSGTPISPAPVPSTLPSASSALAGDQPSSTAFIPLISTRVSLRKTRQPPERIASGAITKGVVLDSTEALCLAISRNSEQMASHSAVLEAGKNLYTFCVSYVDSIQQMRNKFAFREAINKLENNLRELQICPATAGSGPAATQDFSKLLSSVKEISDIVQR
Sequence of Ras and Rab interactor 1/Tyrosine-protein kinase ABL1 (Q13671 whole entry): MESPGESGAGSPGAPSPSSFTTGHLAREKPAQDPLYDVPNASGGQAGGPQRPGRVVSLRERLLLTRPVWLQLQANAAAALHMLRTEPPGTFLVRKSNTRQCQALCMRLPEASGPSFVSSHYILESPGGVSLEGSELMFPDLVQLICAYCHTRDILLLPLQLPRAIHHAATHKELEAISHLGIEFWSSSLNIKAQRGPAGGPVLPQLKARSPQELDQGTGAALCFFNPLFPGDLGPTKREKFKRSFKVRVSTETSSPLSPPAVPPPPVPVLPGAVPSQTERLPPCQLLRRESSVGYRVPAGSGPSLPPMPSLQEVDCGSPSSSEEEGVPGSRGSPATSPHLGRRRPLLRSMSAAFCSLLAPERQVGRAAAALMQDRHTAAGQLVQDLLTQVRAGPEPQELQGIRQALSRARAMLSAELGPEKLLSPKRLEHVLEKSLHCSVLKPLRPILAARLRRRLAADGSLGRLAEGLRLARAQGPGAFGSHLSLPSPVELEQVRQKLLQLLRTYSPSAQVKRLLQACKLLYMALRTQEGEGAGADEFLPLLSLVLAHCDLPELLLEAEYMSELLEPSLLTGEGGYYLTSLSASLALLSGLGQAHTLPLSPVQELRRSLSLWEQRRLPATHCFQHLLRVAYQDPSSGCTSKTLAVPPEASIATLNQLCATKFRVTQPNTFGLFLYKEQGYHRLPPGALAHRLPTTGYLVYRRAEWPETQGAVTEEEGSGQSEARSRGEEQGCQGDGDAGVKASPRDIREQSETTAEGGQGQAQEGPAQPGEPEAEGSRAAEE

[17] = A Cell Based Secondary Assay To Explore Cytotoxicity of Compounds that Sensitize Mycobacterium Tuberculosis to Beta-Lactam Antibiotics.; assay type: functional
[18] = target: ADP-ribosylation factor GTPase-activating protein 1 (Rattus norvegicus, UniProt Q62848); experiment: Fluorescence polarization-based biochemical high throughput dose response screening assay to identify inhibitors of ADP-ribosylation factor GTPase activating protein 1 (ARFGAP1).; assay type: functional
Sequence of ADP-ribosylation factor GTPase-activating protein 1 (Q62848 whole entry): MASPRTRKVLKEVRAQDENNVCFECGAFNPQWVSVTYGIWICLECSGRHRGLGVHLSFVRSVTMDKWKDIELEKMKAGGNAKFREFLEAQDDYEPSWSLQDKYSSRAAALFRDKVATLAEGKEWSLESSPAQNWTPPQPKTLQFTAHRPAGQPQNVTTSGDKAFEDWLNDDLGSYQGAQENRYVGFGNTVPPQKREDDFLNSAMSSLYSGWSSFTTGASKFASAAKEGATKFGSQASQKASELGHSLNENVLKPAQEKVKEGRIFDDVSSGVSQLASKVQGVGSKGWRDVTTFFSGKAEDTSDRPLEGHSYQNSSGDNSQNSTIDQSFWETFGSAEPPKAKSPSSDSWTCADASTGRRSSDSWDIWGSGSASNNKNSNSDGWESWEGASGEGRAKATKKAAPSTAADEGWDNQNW

CCN1CCCC1CNC(=O)c1ccc2c(c1)NC(=O)/C(=C\c1ccc(OC)c(OC)c1)S2 (stereo unspecified)
AC50 [1]: 3.24 µM (active) | AC50 [2]: 12.6 µM (active) | IC50 (Nonstructural protein 1): 81.9 µM (active) | AC50 [3]: 36.4 µM (active) | AC50 [4]: 13.8 µM (active)

O=c1[nH]c(S)nc2ccccc12
CC50 [5]: > 100 µM (active)

O=C(COc1ccccc1)Nc1sc2c(c1C(=O)NCc1cccnc1)CCCC2
IC50 [6]: 21.3 µM (inactive)

CCCCn1nc2cc(C(=O)NCCCCc3ccccc3)ccc2c1OCC
AC50 (Cytochrome P450 2C9): 31.6 µM (inconclusive) | EC50 (Insulin-degrading enzyme [7]): > 54.7 µM (inactive) | AC50 (Cytochrome P450 2D6): 3.98 µM (inconclusive) | EC50 (HEK293 [8]): > 54.7 µM (inactive) | IC50 (HEK293 [9]): > 89.2 µM (inactive) | AC50 (Cytochrome P450 3A4): 6.31 µM (inconclusive) | EC50 (Insulin-degrading enzyme [10]): 22.8 µM (inactive)

O=C(c1ccccc1)N1CCN(c2cc(-c3ccccc3)nc3cc(-c4ccc(F)cc4)nn23)CC1
EC50 [11]: 2.35 µM (active) | EC50 [12]: 5.63 µM (active)

CCOc1ccc(Nc2cc3n(c(=O)n2)CCc2cc(OC)c(OC)cc2-3)cc1
EC50 [13]: > 112 µM (not active) | AC50 [14]: 102 µM (active) | EC50 [15]: 12.5 µM (active)

CCOC(=O)c1ccc(NC(=O)COc2ccccc2CNC2CCCC2)cc1
IC50 [16]: 12.2 µM (inactive)

Cc1cccc(NC(=O)Cn2cnc3c(oc4ccccc43)c2=O)c1C
CC50 [17]: > 40 µM (active) | IC50 [18]: 28.7 µM (inactive)

Cc1cccc(C(=O)NCCN2CCOCC2)c1[N+](=O)[O-]
EC50 (Insulin-degrading enzyme [7]): > 54.6 µM (inactive) | EC50 (HEK293 [8]): > 54.6 µM (inactive) | IC50 (HEK293 [9]): > 89.1 µM (inactive) | EC50 (Insulin-degrading enzyme [10]): > 54.6 µM (inactive)

— ChEMBL document CHEMBL1201862, “PubChem BioAssay data set” (2004)
